# Measured values taken from patent US10058598B2, “Peptides and combination of peptides for use in immunotherapy against various cancers” (immatics biotechnologies GmbH, priority 2015, dated 2018).
# Tested on: HLA-A*02
# Assay: MHC binding assay: UV-ligand exchange and beta2m ELISA, peptide exchange yield
# Design: species or system human
# Conditions: binding to HLA-A*02, UV-ligand exchange, β2m ELISA
# From the text: Candidate peptides for T cell based therapies according to the present invention were further tested for their MHC binding capacity (affinity). The individual peptide-MHC complexes were produced by UV-ligand exchange, where a UV-sensitive peptide is cleaved upon UV-irradiation, and exchanged with the peptide of interest as analyzed. Only peptide candidates that can effectively bind and stabilize the peptide-receptive MHC molecules prevent dissociation of the MHC complexes. To determine the yield of the exchange reaction, an ELISA was performed based on the detection of the light chain (β2m) of stabilized MHC complexes. The assay was performed as generally described in Rodenko et al. (Rodenko et al., 2006).
# 96 well MAXISorp plates (NUNC) were coated over night with 2 ug/ml streptavidin in PBS at room temperature, washed 4× and blocked forl h at 37° C. in 2% BSA containing blocking buffer. Refolded HLA-A*02:01/MLA-001 monomers served as standards, covering the range of 15-500 ng/ml. Peptide-MHC monomers of the UV-exchange reaction were diluted 100 fold in blocking buffer. Samples were incubated for 1 h at 37° C., washed four times, incubated with 2 ug/ml HRP conjugated anti-β2m for 1 h at 37° C., washed again and detected with TMB solution that is stopped with […]. Absorption was measured at 450 nm. Candidate peptides that show a high exchange yield (preferably higher than 50%, most preferred higher than 75%) are generally preferred for a generation and production of antibodies or fragments thereof, and/or T cell receptors or fragments thereof, as they show sufficient avidity to the MHC molecules and prevent dissociation of the MHC complexes.
row,Peptide exchange,Substance
1,++++ (> = 75% = ++++),4 (KLMPGTYTL; listed as Homo sapiens) [compound 4]
2,++++ (> = 75% = ++++),12 (GLLPLLHRA; listed as Homo sapiens) [compound 12]
3,++++ (> = 75% = ++++),249 (GLCERLVSL; listed as Homo sapiens) [compound 249]

# Tested on: CD8+ T cells of healthy HLA-A*02+ donors
# Assay: In vitro immunogenicity: T-cell priming with aAPCs loaded with HLA-A*02/peptide complexes and anti-CD28, pMHC multimer readout
# Format: cell-based, human
# Conditions: HLA-A*02 peptides; share of positive wells
# From the text: FIGS. 4A to 4D show exemplary results of peptide-specific in vitro CD8+ T cell responses of a healthy HLA-A*02+ donor. CD8+ T cells were primed using artificial APCs coated with anti-CD28 mAb and HLA-A*02 in complex with SeqID No 27 peptide (FIG. 4A, left panel), SeqID No 229 peptide (FIG. 4B, left panel), SeqID No 230 peptide (FIG. 4C, left panel) and SeqID No 235 peptide (FIG. 4D, left panel), respectively. After three cycles of stimulation, the detection of peptide-reactive cells was performed by 2D multimer staining with A*02/SeqID No 27 (FIG. 4A), A*02/SeqID No 229 (FIG. 4B), A*02/SeqID No 230 (FIG. 4C) or A*02/SeqID No 235 (FIG. 4D). Right panels (FIGS. 4A, 4B, 4C and 4D) show control staining of cells stimulated with irrelevant A*02/peptide complexes. Viable singlet cells were gated for CD8+ lymphocytes. Boolean gates helped excluding false-positive events detected with multimers specific for different peptides. Frequencies of specific multimer+ cells among CD8+ lymphocytes are indicated.
# In order to obtain information regarding the immunogenicity of the TUMAPs of the present invention, the inventors performed investigations using an in vitro T-cell priming assay based on repeated stimulations of CD8+ T cells with artificial antigen presenting cells (aAPCs) loaded with peptide/MHC complexes and anti-CD28 antibody.
# In order to perform in vitro stimulations by artificial antigen presenting cells loaded with peptide-MHC complex (pMHC) and anti-CD28 antibody, the inventors first isolated CD8+ T cells from fresh HLA-A*02 leukapheresis products via positive selection using CD8 microbeads (Miltenyi Biotec, Bergisch-Gladbach, Germany) of healthy donors obtained from the University clinics Mannheim, Germany, after informed consent.
# PBMCs and isolated CD8+ lymphocytes were incubated in T-cell medium (TCM) until use consisting of RPMI-Glutamax (Invitrogen, Karlsruhe, Germany) supplemented with 10% heat inactivated human AB serum (PAN-Biotech, Aidenbach, Germany), 100 U/ml Penicillin/100 μg/ml Streptomycin (Cambrex, Cologne, Germany), 1 mM sodium pyruvate (CC Pro, Oberdorla, Germany), 20 μg/ml Gentamycin (Cambrex). 2.5 ng/ml IL-7 (PromoCell, Heidelberg, Germany) and 10 U/ml IL-2 (Novartis Pharma, Nurnberg, Germany) were also added to the TCM at this step.
# Generation of pMHC/anti-CD28 coated beads, T-cell stimulations and readout was performed in a highly defined in vitro system using four different pMHC molecules per stimulation condition and 8 different pMHC molecules per readout condition.
# The purified co-stimulatory mouse IgG2a anti human CD28 Ab 9.3 (Jung et al., 1987) was chemically biotinylated using Sulfo-N-hydroxysuccinimidobiotin as recommended by the manufacturer (Perbio, Bonn, Germany). Beads used were 5.6 μm diameter streptavidin coated polystyrene particles (Bangs Laboratories, IIIinois, USA).
# pMHC used for positive and negative control stimulations were A*0201/MLA-001 (peptide […] (SEQ ID NO. 303) from modified Melan-A/MART-1) and A*0201/DDX5-001 ([…] from DDX5, SEQ ID NO. 304), respectively.
# 800.000 beads/200 μl were coated in 96-well plates in the presence of 4×12.5 ng different biotin-pMHC, washed and 600 ng biotin anti-CD28 were added subsequently in a volume of 200 μl. Stimulations were initiated in 96-well plates by co-incubating […] CD8+ T cells with 2×10^5 washed coated beads in 200 μl TCM supplemented with 5 ng/ml IL-12 (PromoCell) for 3 days at 37° C. Half of the medium was then exchanged by fresh TCM supplemented with 80 U/ml IL-2 and incubating was continued for 4 days at 37° C. This stimulation cycle was performed for a total of three times. For the pMHC multimer readout using 8 different pMHC molecules per condition, a two-dimensional combinatorial coding approach was used as previously described (Andersen et al., 2012) with minor modifications encompassing coupling to 5 different fluorochromes. […]
row,Substance,"in vitro immunogenicity, Wells"
1,290 (KIVDFSYSV; listed as Homo sapiens) [compound 290],++ (20%-49% = ++)
2,291 (KLDETGNSL; listed as Homo sapiens) [compound 291],+ (<20% = +)
3,292 (GMMTAILGV; listed as Homo sapiens) [compound 292],+ (<20% = +)
4,293 (FLVDGSWSI; listed as Homo sapiens) [compound 293],+ (<20% = +)

# Same assay, conditions: in vitro immunogenicity, HLA-A*02 peptides (SEQ ID No 1-251), pMHC multimer readout
row,Substance,Wells positive [%]
1,4 (KLMPGTYTL; listed as Homo sapiens) [compound 4],+ (<20% = +)
2,5 (GIVAHIQEV; listed as Homo sapiens) [compound 5],+ (<20% = +)
3,12 (GLLPLLHRA; listed as Homo sapiens) [compound 12],++++ (> = 70% = ++++)
4,18 (ILLDLTDNRL; listed as Homo sapiens) [compound 18],+ (<20% = +)
5,23 (SLFSDEFKV; listed as Homo sapiens) [compound 23],++++ (> = 70% = ++++)
6,26 (ALQEELTEL; listed as Homo sapiens) [compound 26],+ (<20% = +)
7,29 (YLLDPSITL; listed as Homo sapiens) [compound 29],+ (<20% = +)
8,31 (TITETTVEV; listed as Homo sapiens) [compound 31],+ (<20% = +)
9,35 (FLLPFSTVYL; listed as Homo sapiens) [compound 35],+ (<20% = +)
10,90 (FLQDLEQRL; listed as Homo sapiens) [compound 90],+ (<20% = +)
11,141 (FLDKVLVAA; listed as Homo sapiens) [compound 141],+ (<20% = +)
12,149 (ILNTHITEL; listed as Homo sapiens) [compound 149],+ (<20% = +)
13,230 (KLQNIMMLL; listed as Homo sapiens) [compound 230],++++ (> = 70% = ++++)
14,249 (GLCERLVSL; listed as Homo sapiens) [compound 249],+ (<20% = +)
